Measured values as given in PMC10877733, “Discovery and Characterization of VU0542270, the First Selective Inhibitor of Vascular Kir6.1/SUR2B KATP Channels” (Molecular Pharmacology, 2024).

Assays:
[1] = target: T1, Kir2.2 (Homo sapiens, UniProt Q14500); assay: Thallium flux selectivity assay Kir2.2; type: cell-based
T1 construct: expressed in transfected cells
T1 sequence (Q14500 1-433): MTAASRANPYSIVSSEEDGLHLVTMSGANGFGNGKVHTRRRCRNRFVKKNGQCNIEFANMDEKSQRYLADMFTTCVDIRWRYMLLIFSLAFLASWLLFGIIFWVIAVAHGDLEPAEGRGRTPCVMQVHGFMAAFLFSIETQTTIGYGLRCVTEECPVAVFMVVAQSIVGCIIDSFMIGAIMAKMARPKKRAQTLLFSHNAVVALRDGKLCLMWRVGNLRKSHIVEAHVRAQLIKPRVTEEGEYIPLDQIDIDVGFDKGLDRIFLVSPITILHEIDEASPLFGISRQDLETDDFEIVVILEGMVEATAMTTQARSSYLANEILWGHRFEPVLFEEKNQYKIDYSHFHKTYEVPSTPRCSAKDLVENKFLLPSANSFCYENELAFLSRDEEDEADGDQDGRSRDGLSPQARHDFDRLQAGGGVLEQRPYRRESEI
Protocol: (§1) Quantitative thallium flux assays of Kir6.1/SUR2B activity were performed essentially as described previously for Kir6.2/SUR1 ([Raphemot et al., 2014]; [Kharade et al., 2019]). Stable T-Rex-HEK293-Kir6.1/SUR2B cells or transiently transfected HEK293T cells were plated in polyamine-coated, clear-bottomed, black-walled 384-well plates and were cultured (37°C/5% CO2) overnight in Dulbecco’s modified Eagle’s medium (Gibco, Carlsbad, CA, 11995-065) containing 10% FBS (2 mM Penicillin-Streptomycin). The following day, cells were washed with assay buffer (i.e., Hanks’ balanced salt solution/20 mM HEPES) and loaded for 1 hour with thallium sensor dye Brilliant Thallium (Ion Bioscience, San Marcos, TX) at room temperature. Dye-loaded cells were washed with assay buffer and transferred to a Panoptic Kinetic Imaging Plate Reader (Wavefront Bioscience, Franklin, TN). Control and test compound treatments were for 4 minutes prior to adding 0.5 mM chloride-free thallium stimulus buffer (Ion Bioscience) to initiate thallium flux. […] Selectivity assays against other Kir channels were performed essentially as described previously ([Kharade et al., 2018]; [McClenahan et al., 2022]).

[2] = target: T2, Kir3.1/Kir3.2 (Homo sapiens, UniProt P48051+P48549); assay: Thallium flux selectivity assay Kir3.1/Kir3.2; type: cell-based
T2 construct: expressed in transfected cells
T2 sequence (P48549 1-501): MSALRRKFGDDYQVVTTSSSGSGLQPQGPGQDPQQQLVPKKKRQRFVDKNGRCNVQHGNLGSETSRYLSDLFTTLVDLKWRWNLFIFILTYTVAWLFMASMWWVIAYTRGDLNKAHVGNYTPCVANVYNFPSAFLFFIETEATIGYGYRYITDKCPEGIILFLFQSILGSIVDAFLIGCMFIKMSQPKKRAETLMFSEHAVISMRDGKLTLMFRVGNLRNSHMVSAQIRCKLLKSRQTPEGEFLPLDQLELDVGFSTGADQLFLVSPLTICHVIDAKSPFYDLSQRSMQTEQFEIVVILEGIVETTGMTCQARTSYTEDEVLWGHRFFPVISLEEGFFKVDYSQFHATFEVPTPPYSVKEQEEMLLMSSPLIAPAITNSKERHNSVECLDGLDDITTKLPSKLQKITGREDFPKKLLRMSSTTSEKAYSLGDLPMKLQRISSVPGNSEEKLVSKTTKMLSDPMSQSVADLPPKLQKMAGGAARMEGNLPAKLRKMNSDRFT
T2 sequence (P48051 1-423): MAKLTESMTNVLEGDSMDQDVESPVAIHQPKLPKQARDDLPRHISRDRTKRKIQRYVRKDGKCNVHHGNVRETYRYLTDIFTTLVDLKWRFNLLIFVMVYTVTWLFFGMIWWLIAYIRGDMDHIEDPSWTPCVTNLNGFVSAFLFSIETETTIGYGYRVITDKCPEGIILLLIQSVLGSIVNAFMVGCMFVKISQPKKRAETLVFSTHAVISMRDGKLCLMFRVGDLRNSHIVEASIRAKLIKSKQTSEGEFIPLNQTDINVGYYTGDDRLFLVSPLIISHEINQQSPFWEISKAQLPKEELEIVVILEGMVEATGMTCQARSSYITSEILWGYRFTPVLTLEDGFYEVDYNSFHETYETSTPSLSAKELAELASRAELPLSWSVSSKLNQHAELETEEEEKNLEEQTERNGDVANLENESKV
Protocol: as §1

[3] = test system: nine other members of the Kir channel family; assay: Thallium assays, panel of nine other members of the Kir channel family; type: cell-based; conditions: read-out: IC50 against panel of nine other Kir channel family members
Protocol: as §1

[4] = Intrinsic clearance in liver microsomes, human; type: in vitro ADME
Protocol: (§2) The in vitro intrinsic clearance (CLint) of VU0542270 was investigated in commercially obtained hepatic microsomes from rat, mouse, and human donors using the substrate depletion (i.e., loss-of-parent versus time, or t1/2 method) approach with analyte detection via LC-MS/MS. For each species, mean per cent parent remaining values at each time point were calculated from replicates raw data (analyte:IS peak area ratios) and used to determine in vitro t1/2 and CLint.
(§3) Experiments were carried out using a robot-assisted liquid handling system (TECAN model Evo 200). VU0542270 was incubated (1 µM final concentration) in buffer (100 mM potassium phosphate, pH 7.4, with 3 mM MgCl2) containing hepatic microsomes (0.5 mg/mL final concentration) from multiple species, discretely, at 37°C under constant orbital shaking. After 5 minutes (preincubation), reactions were initiated by the addition of NADPH (1 mM final concentration). At selected time intervals (0, 3, 7, 15, 25, and 45 minutes) post addition of NADPH, aliquots (50 µL) were taken and placed into a 96-shallow-well plate containing ice-cold acetonitrile (150 µL) with carbamazepine (IS, 50 nM). The plates were then centrifuged (3000 rcf at 4°C) for 10 minutes. […]
(§4) Predicted hepatic clearance (CLhep) was calculated using the following equation: [drawing 4] […]

[5] = Intrinsic clearance in liver microsomes, mouse; type: in vitro ADME
Protocol: as §2, §3, §4

[6] = corrected to plasma unbound fraction

IC50 [1]: > 30 µM
IC50 [2]: > 30 µM
IC50 [3]: > 30 µM
Predicted CLhep,u (human) [4, 6]: 1.3 mL/min per kg
Predicted CLhep (human) ([4]; from microsomal CLint): 19 mL/min per kg
Predicted CLhep,u (mouse) [5, 6]: 27 mL/min per kg
Predicted CLhep (mouse) ([5]; from microsomal CLint): 88 mL/min per kg
SMILES: Cc1nc(-c2cccs2)sc1CNC(=O)Nc1cccs1 [VU0542270]
